This is an account of results in ChEMBL document CHEMBL3046232, “Synthesis, pharmacological evaluation and molecular docking studies of indanone derivatives” (2012).

Type in all cases: functional
For experiment [1], the system named is Aspergillus niger. Briefly: Antimicrobial activity against at Aspergillus niger at 100 ug/ml by cup-plate method. The settings on record: read-out: IZ.
Experiment [2] concerns Rattus norvegicus. Briefly: Anti-inflammatory activity in Rattus norvegicus Wistar albino (rat) assessed as protection against carrageenan-induced paw edema at 50 mg/kg after 2 hr. Background: In the carrageenan paw model, swelling and tenderness develop within hours.
Experiment [3] deals with Bacillus subtilis. Briefly: Antimicrobial activity against at Bacillus subtilis at 25 ug/ml by cup plate method. The settings on record: read-out: IZ.
The test system of experiment [4] is Penicillium chrysogenum. Description: Antimicrobial activity against at Penicillium chrysogenum at 25 ug/ml by cup-plate method. The settings on record: read-out: IZ.
The subject of experiment [5] is Aspergillus niger. Description: Antimicrobial activity against at Aspergillus niger at 50 ug/ml by cup-plate method. The settings on record: read-out: IZ.
The subject of experiment [6] is Escherichia coli. Briefly: Antimicrobial activity against at Escherichia coli at 25 ug/ml by cup-plate method. The settings on record: read-out: IZ.
The subject of experiment [7] is Bacillus subtilis. Briefly: Antimicrobial activity against at Bacillus subtilis at 50 ug/ml by cup plate method. Conditions: read-out: IZ.
The subject of experiment [8] is Rattus norvegicus. Briefly: Anti-inflammatory activity in Rattus norvegicus Wistar albino (rat) assessed as protection against carrageenan-induced paw edema at 50 mg/kg after 60 min.
Experiment [9] deals with Aspergillus niger. Description: Antimicrobial activity against at Aspergillus niger at 25 ug/ml by cup-plate method. The settings on record: read-out: IZ.
Experiment [10] deals with Escherichia coli. Description: Antimicrobial activity against at Escherichia coli at 100 ug/ml by cup-plate method. The settings on record: read-out: IZ.
Experiment [11] concerns Rattus norvegicus. Description: Anti-inflammatory activity in Rattus norvegicus Wistar albino (rat) assessed as protection against carrageenan-induced paw edema at 50 mg/kg after 90 min.
For experiment [12], the system named is Mus musculus. Description: Analgesic activity in Mus musculus Swiss albino (mouse) assessed as increase in reaction time of paw licking or jump response at 50 mg/kg, po after 60 min by hot plate method.
The test system of experiment [13] is Escherichia coli. Description: Antimicrobial activity against at Escherichia coli at 50 ug/ml by cup-plate method. Conditions: read-out: IZ.
Experiment [14] concerns Penicillium chrysogenum. Briefly: Antimicrobial activity against at Penicillium chrysogenum at 50 ug/ml by cup-plate method. The settings on record: read-out: IZ.
For experiment [15], the system named is Penicillium chrysogenum. Briefly: Antimicrobial activity against at Penicillium chrysogenum at 100 ug/ml by cup-plate method. The settings on record: read-out: IZ.
Experiment [16] concerns Mus musculus. Briefly: Analgesic activity in Mus musculus Swiss albino (mouse) assessed as increase in reaction time of paw licking or jump response at 50 mg/kg, po after 90 min by hot plate method. A general note: Thermal pain tests record how soon the animal reacts.
Experiment [17] has as its system Mus musculus. Briefly: Analgesic activity in Mus musculus Swiss albino (mouse) assessed as increase in reaction time of paw licking or jump response at 50 mg/kg, po after 30 min by hot plate method.
Experiment [18] deals with Rattus norvegicus. Description: Anti-inflammatory activity in Rattus norvegicus Wistar albino (rat) assessed as protection against carrageenan-induced paw edema at 50 mg/kg after 30 min.
For experiment [19], the system named is Rattus norvegicus. Description: Anti-inflammatory activity in Rattus norvegicus Wistar albino (rat) assessed as protection against carrageenan-induced paw edema at 50 mg/kg after 3 hr.
Experiment [20] relates to Bacillus subtilis. Description: Antimicrobial activity against at Bacillus subtilis at 100 ug/ml by cup plate method. The settings on record: read-out: IZ.
Experiment [21] deals with Mus musculus. Description: Analgesic activity in Mus musculus Swiss albino (mouse) assessed as increase in reaction time of paw licking or jump response at 20 mg/kg, po after 60 min by hot plate method.
The test system of experiment [22] is Mus musculus. Briefly: Analgesic activity in Mus musculus Swiss albino (mouse) assessed as increase in reaction time of paw licking or jump response at 20 mg/kg, po after 90 min by hot plate method.

As for `O=C1c2ccccc2-c2noc(-c3ccccc3)c21`, the zone of inhibition at 100 µg/mL in [1] was found to be 22.8 mm; in experiment [10], 30.9 mm; in experiment [15], 19.5 mm; in experiment [20], 16.3 mm. For the same compound, the Activity was determined as 28.42% in experiment [2]; 27.61% in experiment [8]; 30.19% in experiment [11]; 12.03% in [12]; 17.23% in [16]; 6.23% in experiment [17]. The figures for the Activity in experiment [18] and in experiment [19] were 21.44% and 26.21%, respectively. Besides, the zone of inhibition at 25 µg/mL in experiment [3] is 9 mm; in experiment [4], 6 mm; in experiment [6], 9.79 mm; in experiment [9] it was 9.75 mm. Besides, the zone of inhibition at 50 µg/mL is 16.8 mm in [5], 12 mm in experiment [7], 16.9 mm in [13] and 12.8 mm in experiment [14].

With `O=C1c2ccccc2-c2noc(-c3ccccc3[N+](=O)[O-])c21`, the zone of inhibition at 100 µg/mL was 19 mm in [1], 19.8 mm in experiment [10], 14.2 mm in [15] and 14.2 mm in experiment [20]. Further, the Activity in [2] is 8.01%; in experiment [8] it was 6.33%; in experiment [11], 7.11%; in [12], 7.62%; in [16] it was 9.84%; in experiment [17] it was 5.24%. For the same compound, the figures for the Activity in [18] and in experiment [19] were 7.22% and 9.52%, respectively. In addition, the zone of inhibition at 25 µg/mL in experiment [3] worked out at 4.25 mm; in [4], 5.25 mm; in experiment [6] it was 5.25 mm. Besides, the zone of inhibition at 50 µg/mL in [5] came out at 7.25 mm; in experiment [7], 7.5 mm; in experiment [13], 12.8 mm; in experiment [14] it was 8.25 mm.

As for `O=C1c2ccccc2-c2noc(-c3ccc([N+](=O)[O-])cc3)c21`, the zone of inhibition at 100 µg/mL in experiment [1] worked out at 16.2 mm; in experiment [10] it was 18.5 mm; in experiment [15], 15 mm; in experiment [20], 14.5 mm. In addition, the Activity in experiment [2] is recorded as 16.21%; in experiment [8] it was 13.35%; in [11] it was 18.51%; in [12], 5.91%; in experiment [16], 8.55%; in experiment [17] it was 3.95%. Besides, the figures for the Activity in [18] and in experiment [19] were 10.92% and 17.21%, respectively. For the same compound, the zone of inhibition at 25 µg/mL worked out at 4.5 mm in experiment [3], 4.5 mm in [4], 5.5 mm in experiment [6] and 4.75 mm in [9]. In addition, the zone of inhibition at 50 µg/mL in [5] came to 13.5 mm; in experiment [7] it was 6.75 mm; in experiment [13], 13 mm; in experiment [14], 11 mm.

For `COc1cccc(-c2onc3c2C(=O)c2ccccc2-3)c1O`, the zone of inhibition at 100 µg/mL is 29.6 mm in [1], 21 mm in experiment [10], 16.6 mm in [15] and 16 mm in [20]. Also, the Activity in experiment [2] is 34.32%; in experiment [8], 32.22%; in [11], 37.62%; in [12], 11.44%; in experiment [16], 16.43%; in [17], 6%. Further, the Activity is on record as 25.44% in experiment [18] and 30.41% in [19]. Besides, the zone of inhibition at 25 µg/mL was 6.75 mm in experiment [3], 5.35 mm in experiment [4], 10.2 mm in [6] and 10.8 mm in [9]. Further, the zone of inhibition at 50 µg/mL in experiment [5] was determined as 16.5 mm; in experiment [13], 14.7 mm; in [14], 10.5 mm.

For `O=C([O-])Cc1ccccc1Nc1c(Cl)cccc1Cl.[Na+]` [DICLOFENAC SODIUM], the Activity was 27.59% in experiment [21] and 34.62% in [22].
